Here are results for 1 compound from paper PMC12383972, “Oral Pharmacokinetic Evaluation of a Microemulsion-Based Delivery System for Novel A190 Prodrugs” (Biomolecules, 2025).

Molecules are shown by their SMILES. Values after ≈ are worked out from the molar mass of the structure shown. Where two headings read alike, the source gives them in different places.

The half-life is the time in which the quantity being followed falls by half. By solubility is commonly meant the dissolved amount per volume that the medium holds.

Data set [1] can be described thus: Bioconversion of prodrugs in rabbit plasma. The format is in vitro ADME. Conditions: 100 μM prodrug, 37 °C. As to the method:
(§1) Conversion of the respective prodrugs to the parent drug A190 was assessed in pooled rat and rabbit plasma. Following pre-incubation of plasma at 37 °C for 5 min, stock solution of each prodrug (10 mM) was spiked into the plasma to reach a final concentration of 100 μM. The mixture was incubated at 37 °C, 200 rpm on a temperature-controlled orbital shaker. Incubation mixture (200 μL) was withdrawn at pre-determined time points, and the reaction was terminated by the addition of 700 μL of ice cold ACN. 100 μL of internal standard (0.5 μg/mL of fenofibric acid) was then spiked, and the samples were vortexed and centrifuged at 10,000× g for 10 min. The resulting supernatants were collected and filtered using PTFE filters and injected into HPLC-UV system. The LC system was a reverse phased Shimadzu Prominence (Kyoto, Japan) using a Pursuit 5 C18 column. Isocratic separation was performed with mobile phase consisting of ACN/water (80/20 v/v) containing 0.1% trifluoroacetic acid and monitored at a UV detection of 227 nm.

The next data set deals with HepG2 cells. Put plainly: MTT cell viability assay, HepG2. The format is cell-based, human. Particulars: HepG2, 50 µM, 24 h and 48 h. As to the method: (§2) To evaluate the cytotoxicity of free A190-PD-60 (in 0.2% DMSO in DMEM), vehicle microemulsion, and A190-PD-60-ME against Caco-2 cells and HepG2 cells, an MTT assay using 3-(4,5-dimethylthiazol-2-yl)-2,5-diphenyltetrazolium bromide was performed as described before. Caco-2 and HepG2 cells were first cultured in DMEM supplemented with 10% FBS, penicillin (100 U/mL), and streptomycin (100 μg/mL) at 37 °C in a 5% CO2 humidified incubator. Upon reaching confluence, cells were trypsinized and seeded at 10 × 10^4 cells/well in 96-well plates. After 48 h, the medium was replaced with fresh dilutions of free A190-PD-60, vehicle microemulsion, or A190-PD-60-ME (0.1–50 µM) in DMEM. Controls included untreated cells and cells treated with 0.2% DMSO in DMEM. Following 24 h and 48 h incubation, the medium was replaced with 100 µL of MTT solution (5 mg/mL in PBS) and incubated for 3 h. The supernatant was then removed, and formazan crystals were dissolved in 100 µL DMSO. Absorbance was measured at 540 nm, and cell viability (%) was calculated as (OD of samples/OD of control) × 100.
A general note: Tetrazolium dyes change colour on reduction, which living cells bring about.

Data set [2] can be described thus: Solubility in microemulsion excipients. The format is physicochemical. Particulars: for solubility at 72 h: thermodynamic from solid, 25 °C. As for the experimental part:
Enhancement of drug solubility is the primary factor considered when evaluating ME components. To determine the solubility of A190-PD-60, an excess amount of A190-PD-60 was added to 1 g of each of the tested oils, surfactants and co-surfactants in glass vials with stoppers. A190-PD-60 and excipients were mixed together and vortexed. The mixtures were kept at a temperature of 25 ± 1.0 °C in an isothermal shaker for 72 h to achieve equilibrium. The mixtures were then centrifuged at 10,000× g for 15 min. The resulting supernatants were filtered using […] membrane filters and concentrations of A190-PD-60 in the filtrates were quantified via HPLC-UV analysis. Oils, emulsifiers, and co-emulsifiers with the highest solubilities were chosen for further miscibility analysis. For this, 2 mL of the selected excipients were mixed and vortexed for 10 min, then allowed to equilibrate for 1 h. The resulting mixtures were visually inspected for transparency and phase separation.

The nature of data set [3]: Parallel artificial membrane permeability assay (PAMPA). Type of data set: in vitro ADME. Particulars: PBS pH 6.8, 200 µg/mL donor, 5 h, room temperature. As for the experimental part:
Parallel artificial membrane permeability assay (PAMPA) is a widely used screening method to predict the passive intestinal permeability using a phospholipid coated lipophilic membrane which simulates the properties of the intestinal wall. The in vitro intestinal membrane permeability of free A190-PD-60 (dispersed in PBS pH 6.8), A190-PD-60 dispersion (dispersed in a mixture of 1:1 v/v methylcellulose/Tween 80), and A190-PD-60-ME were evaluated using a PAMPA plate (BD BioSciences, San Jose, CA, USA), as described previously. The samples for donor chamber were prepared by diluting free A190-PD-60, A190-PD-60 dispersion, and A190-PD-60-ME with PBS pH 6.8 to a final concentration of 200 µg/mL. […] The concentration of A190-PD-60 which permeated into the acceptor chamber was measured using a HPLC-UV system. The effective permeability coefficient (Pe) was then calculated using the following equation:Pe = −ln(1 − CA[t]/Cequilibrium)/(A × [1/VD + 1/VA] × t)(1) where Pe is the permeability (cm/s), A is the effective filter area (0.228 cm^2), VD is the volume of the donor well (0.2 mL), VA is the volume of the receptor well (0.3 mL), t is the total time of incubation in seconds, CA(t) denotes the concentration of drug in the receptor well at time t, and Cequilibrium represents (CD[t] × VD + CA[t] × VA)/(VD + VA), where CD(t) denotes the concentration of drug in the donor well at time t.
Background: The PAMPA barrier holds no transporters, so it reflects passive diffusion.

The next data set concerns Caco-2 cells. Put plainly: MTT cell viability assay, Caco-2. Type of data set: cell-based, human. Particulars: Caco-2, 50 µM, 24 h and 48 h. As to the method:
as §2

Data set [4] in a line: Bioconversion of prodrugs in rat plasma. The format is in vitro ADME. Conditions: 100 μM prodrug, 37 °C. As for the experimental part: as §1

In the case of `Cc1cc(CNc2cccc(C(=O)OCc3oc(=O)oc3C)c2)ccc1OCc1ccc(F)cc1` [A190-PD-60, (5-Methyl-2-oxo-1,3-dioxol-4-yl)methyl3-((4-((4-Fluorobenzyl)oxy)-3-methylbenzyl)amino)benzoate], the half-life at 100 μM is 30 min in data set [1] (pooled rabbit plasma) and 18 min in data set [4] (pooled rat plasma). Further, the “Prodrug bioconversion half-life (Rabbit plasma)” value in data set [1] (Figure 3E) was 30 min. In addition, the “cytotoxicity at highest tested concentration” value in the data set on HepG2 cells and in the data set with Caco-2 cells was “no significant cytotoxicity” throughout. For the same compound, the “solubility in Capryol 90 relative to Maisine oil” value in data set [2] came out at 13.9 fold. Besides, the “solubility in Capryol 90 relative to oleic acid” value in data set [2] is on record as 4.8 fold. For the same compound, the solubility at 72 h came out at 4450 ± 310 µg/mL (≈ 9.32 mM) in data set [2] (Capryol 90, oil or lipid, read-out: Solubility in Capryol 90); 9050 ± 40 µg/mL (≈ 19 mM) in data set [2] (Cremophor EL, organic solvent or mixture, read-out: Solubility in Cremophor EL); 6580 ± 190 µg/mL (≈ 13.8 mM) in data set [2] (Labrafil M, oil or lipid, read-out: Solubility in Labrafil M); 4590 ± 50 µg/mL (≈ 9.61 mM) in data set [2] (Lauroglycol FCC, oil or lipid, read-out: Solubility in Lauroglycol FCC); 320 ± 300 µg/mL (≈ 0.67 mM) in data set [2] (Maisine oil, oil or lipid, read-out: Solubility in Maisine oil); 920 ± 40 µg/mL (≈ 1.93 mM) in data set [2] (Oleic acid, oil or lipid, read-out: Solubility in Oleic acid). Moreover, the solubility at 72 h in data set [2] (Peceol, oil or lipid, read-out: Solubility in Peceol) stood at 2170 ± 70 µg/mL (≈ 4.54 mM); in data set [2] (Polypropylene glycol, organic solvent or mixture, read-out: Solubility in Polypropylene glycol) it was 3790 ± 620 µg/mL (≈ 7.94 mM); in data set [2] (Transcutol HP, organic solvent or mixture, read-out: Solubility in Transcutol HP), 14100 ± 140 µg/mL (≈ 29.5 mM); in data set [2] (Tween 80, organic solvent or mixture, read-out: Solubility in Tween 80) it was 9170 ± 70 µg/mL (≈ 19.2 mM). The “Effective Permeability Across Artificial Membrane (Pe)” value in data set [3] is < 0.1 ×10^−6, cm/s; in data set [3] (listed as A190-PD-60 in PBS) it was “BLD”. The “Prodrug bioconversion half-life (Rat plasma)” value in data set [4] (Figure 3E) is 18 min.
